Measured values reported in PubChem BioAssay (NCI).
Values joined by “and” are separate entries in the source; they are usually repeats but may differ in a detail not shown here. Equal entries are not always repeated.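 96-well plates; 48 h exposure; 5 concentrations. Endpoints by linear interpolation between flanking doses. Not reached: highest tested concentration assigned. GI50 is the concentration that inhibits growth by half. At the TGI there is no net growth.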

Legend:
Test in all cases: NCI-60 cell line screen, 48 h
SF-268 CNS = system: SF-268 CNS
HCT-116 colon = system: HCT-116 colon
SNB-75 CNS = system: SNB-75 CNS
SN12C renal = system: SN12C renal
SK-MEL-2 melanoma = system: SK-MEL-2 melanoma
NCI-H460 lung = system: NCI-H460 lung
MDA-N = system: MDA-N
SW-620 colon = system: SW-620 colon
BT-549 breast = system: BT-549 breast
NCI/ADR-RES ovarian = system: NCI/ADR-RES ovarian
MALME-3M melanoma = system: MALME-3M melanoma

Row | SMILES | TGI (SF-268 CNS) [µM] | TGI (HCT-116 colon) [µM] | TGI (SNB-75 CNS) | TGI (SN12C renal) [µM] | TGI (SK-MEL-2 melanoma) [µM] | TGI (NCI-H460 lung) [µM] | TGI (MDA-N) [µM] | TGI (SW-620 colon) [µM] | TGI (BT-549 breast) [µM] | TGI (NCI/ADR-RES ovarian) [µM] | TGI (MALME-3M melanoma) [µM] | GI50 (SF-268 CNS) [µM] | GI50 (HCT-116 colon) | GI50 (SNB-75 CNS) [µM] | GI50 (SN12C renal) | GI50 (SK-MEL-2 melanoma) | GI50 (NCI-H460 lung) [µM] | GI50 (SW-620 colon) [µM] | GI50 (NCI/ADR-RES ovarian)
1 | COc1c(=O)cc2cc[nH]c3ccn(C)c1c23 | > 100 | > 100 | > 100 µM | > 100 | > 100 | > 100 | > 100 | > 100 | > 100 | > 100 |  |  |  |  |  |  |  |  | 
2 | CC(C)=CCN1CC(C)C(=O)Nc2ccccc21 (stereo not drawn) | > 100 | > 100 |  | > 100 | > 100 | > 100 | > 100 | > 100 | > 100 |  | > 100 |  |  |  |  |  |  |  | 
3 | CCC1OC2C(CC=C(C)C)=C3OC(C)(O)C(C)(CC)C(OC(C)=O)C3=C3OC(=O)C=C1C32 (stereo not drawn) | > 100 | 70 | 52.1 µM | 41.2 | 41.8 | 84.6 |  | > 100 | 42.9 | 83.2 | 49.3 |  |  |  |  |  |  |  | 
4 | CC1(C)CC[C@]2(C)CC[C@]3(C)C(=CC[C@@H]4[C@@]5(C)CCC(=O)C(C)(C)[C@@H]5[C@H](O)C[C@]43C)[C@@H]2C1 | 32 | 30.5 |  | 29.5 | 30 | 33.9 | 29.7 | 42.2 | 35.4 | 38.6 | 31.6 |  |  |  |  |  |  |  | 
5 | O=C(NC1CCN(Cc2ccccc2)CC1)c1ccc(I)cc1 | > 100 | > 100 |  | > 100 | > 100 | > 100 | > 100 | > 100 | > 100 | > 100 |  |  |  |  |  |  |  |  | 
6 | COc1ccc(OC)c(N(CN2C(=O)CCC2C(=O)O)C(C)=O)c1 (stereo not drawn) | > 100 | > 100 | > 100 µM | > 100 | > 100 |  | > 100 | > 100 |  | > 100 | > 100 |  |  |  |  |  |  |  | 
7 | C=C1CC(c2ccc(OCCCN3C(=O)c4ccccc4C3=O)cc2)OC1=O (stereo not drawn) | 15.4 | 4.89 | 23.7 µM | 12.3 | 4.98 | 8.42 | 10.7 | 2.99 |  | > 95.1 | 7.27 |  |  |  |  |  |  |  | 
8 | COC(=O)c1ccc(S)c(S(=O)(=O)Nc2n[nH]c(N)n2)c1 |  | > 100 |  | > 100 | > 100 | > 100 | > 100 | > 100 | > 100 | > 100 | > 100 |  |  |  |  |  |  |  | 
9 | O=[N+]([O-])c1ccc(OC2CC3C4C=CC3C2C4)c([N+](=O)[O-])c1 (stereo not drawn) | > 100 | > 100 | 69.7 µM and > 31.6 µM | > 100 | > 100 | > 100 |  | > 100 |  | > 100 | > 100 | > 100 | 66.2 µM and > 31.6 µM | 34.5 | 86.4 µM and > 31.6 µM | 90.4 µM and > 31.6 µM | > 100 | > 100 | 76.4 µM and > 31.6 µM
10 | N#Cc1nc(-c2ccco2)oc1N | > 10 | > 10 | > 10 µM |  |  | > 10 | > 10 | > 10 | > 10 | > 10 | > 10 |  |  |  |  |  |  |  | 
11 | COC(=O)c1cc2c(c3c1CC(Cc1ccccc1)C3=O)CCC2 (stereo not drawn) | > 100 | > 100 | > 100 µM | > 100 |  | > 100 | > 100 | > 100 |  | > 100 | > 100 |  |  |  |  |  |  |  | 
12 | O=[N+]([O-])/C(C(Cl)=C(Cl)Cl)=C(/Cl)SCc1ccccc1 | 44.6 | 3.88 | 24.9 µM | 12.9 | 47.4 | 31.2 | 4.23 | 10.2 |  | 3.62 | 6.68 |  |  |  |  |  |  |  | 
13 | CCN(CC)c1ccc2c(c1)Oc1ccc(N(CC)CC)cc1C21Oc2ccccc2-c2c1c1ccccc1n2CC (stereo not drawn) | > 100 | > 100 | > 100 µM | > 100 |  |  |  | > 100 |  |  | 9.27 |  |  |  |  |  |  |  | 
14 | C[C@]12C[C@@H](OC(=O)[C@]1(C)O)[C@@H]([C@]1(O)CC[C@H]3[C@@H]4C[C@H]5O[C@]56C[C@H]5O[C@H]5C(=O)[C@]6(C)[C@H]4CC[C@@]31C)C2 | > 50 | > 50 | > 50 µM | > 50 | > 50 | > 50 | > 50 | > 50 |  | > 50 | > 5 |  |  |  |  |  |  |  | 
15 | CSC(=S)Nc1cccc(C)n1 | > 100 | > 100 | > 100 µM | > 100 | > 100 | > 100 | > 100 | > 100 |  | > 100 | > 100 |  |  |  |  |  |  |  | 
16 | CC1=NC(=Cc2ccccc2O)C(=O)N1n1c(-c2ccccc2)nc2ccccc2c1=O | > 100 | > 100 | > 100 µM | > 100 |  | > 100 | > 100 | > 100 | > 100 | 93.5 | > 100 |  |  |  |  |  |  |  | 

Row | SMILES | TGI (SF-268 CNS) [µM] | TGI (HCT-116 colon) [µM] | TGI (SNB-75 CNS) | TGI (SN12C renal) [µM] | TGI (SK-MEL-2 melanoma) [µM] | TGI (NCI-H460 lung) [µM] | TGI (MDA-N) [µM] | TGI (SW-620 colon) [µM] | TGI (BT-549 breast) [µM] | TGI (NCI/ADR-RES ovarian) [µM] | TGI (MALME-3M melanoma) [µM] | GI50 (SF-268 CNS) [µM] | GI50 (HCT-116 colon) | GI50 (SNB-75 CNS) [µM] | GI50 (SN12C renal) | GI50 (SK-MEL-2 melanoma) | GI50 (NCI-H460 lung) [µM] | GI50 (SW-620 colon) [µM] | GI50 (NCI/ADR-RES ovarian)
17 | CCc1c(C)c(C#N)c(=S)n(C2OC(COC(C)=O)C(OC(C)=O)C(OC(C)=O)C2OC(C)=O)c1-c1ccccc1 (stereo not drawn) | > 31.6 | > 31.6 |  | > 31.6 | > 31.6 | > 31.6 | > 31.6 | > 100 | > 100 | > 31.6 | > 31.6 |  |  |  |  |  |  |  | 
18 | Oc1ccc2cc(Br)ccc2c1-c1c(O)ccc2ccc(Br)cc12 | 41.1 | 27.4 |  | 24.3 | 31.4 | 15.3 | 24.6 | 24.2 | 27.9 | 27.7 | 26.6 |  |  |  |  |  |  |  | 
19 | O=[N+]([O-])c1ccc(-c2nc3ccc(Cl)cc3[nH]2)cc1 | > 100 | > 100 | > 100 µM | > 100 |  | > 100 | > 100 | > 100 | > 100 | > 100 | > 100 |  |  |  |  |  |  |  | 
20 | CC1(C)OCC([C@H]2O[C@@H](CC(=S)NCCCCCCCCCCCCNC(=S)C[C@H]3O[C@@H](C4COC(C)(C)O4)[C@H]4OC(C)(C)O[C@H]43)[C@H]3OC(C)(C)O[C@H]32)O1 (stereo partly drawn) | > 100 | > 100 | > 100 µM |  | > 100 | > 100 | > 100 | > 100 | > 100 | 94.2 |  |  |  |  |  |  |  |  | 
21 | CC1=NN(c2nc(N)nc(/C(C#N)=C\c3csc([N+](=O)[O-])c3)n2)C(C)(C)C1 | 53.4 | > 100 |  |  | 81 | > 100 | 98.9 | > 100 |  | 70.3 |  |  |  |  |  |  |  |  | 
22 | Cc1nc2ccc(C(F)(F)F)cc2nc1NCc1ccc(Cl)c(Cl)c1 | 34 | 32 | 26.9 µM | 35.3 |  | > 100 | 32 | 34.7 | 39.7 | 47.6 | 32 |  |  |  |  |  |  |  | 
23 | CCOC(=O)CNC(=O)C(CSC(=O)N(O)c1ccc(Cl)cc1)NC(=O)CCC(N)C(=O)OCC (stereo not drawn) | > 50 | > 50 |  | > 50 | > 50 | > 50 | > 50 | > 50 | > 50 | > 50 |  |  |  |  |  |  |  |  | 
25 | O=c1[nH]c(=S)nc2nc3c4ccc[nH]c4c4ccccc4c3nc12 | > 100 | > 100 | > 100 µM | > 100 |  | > 100 | > 100 | > 100 | > 100 |  | > 100 |  |  |  |  |  |  |  | 
26 | O=c1[nH]nc(Cc2ccccc2)n1C1CCCC1 | > 100 | > 100 | > 100 µM | > 100 |  | > 100 | > 100 | > 100 |  | > 100 | > 100 |  |  |  |  |  |  |  | 
27 | Cc1cn(CCCCC2=NCCCN2)c(=O)[nH]c1=O | > 24.2 | > 29.3 | > 28.6 µM | > 100 | > 35.9 | > 67.8 | > 100 | > 37 | > 20.5 | > 67.5 |  |  |  |  |  |  |  |  | 
28 | COc1ccc(/C(Br)=C2\OC(=O)c3ccccc32)cc1 | > 10 | > 10 | > 10 µM | > 10 | > 10 | > 10 | > 10 | > 10 |  | > 10 |  |  |  |  |  |  |  |  | 
29 | CC1CN=C(N(Cc2ccccc2)C(=O)Nc2ccc(Cl)c(Cl)c2)S1 (stereo not drawn) | > 100 | > 100 | > 100 µM | 69.3 | 68.3 | > 100 | > 100 | > 100 |  | > 100 | > 100 |  |  |  |  |  |  |  | 
30 | Oc1[nH]c2ccccc2c1N=NC(=S)Nc1ccccc1Cl | 56.9 | 11.8 | 16.1 µM | > 100 | 64.8 | 52.2 | > 100 | 40.3 |  | 3.48 | 21.8 |  |  |  |  |  |  |  | 
31 | CC1(C)OC(=S)N(c2ccccc2)C12C=Cc1ccccc1O2 (stereo not drawn) | > 100 | > 100 | > 100 µM | > 100 | > 100 | > 100 | > 100 | > 100 | > 100 | > 100 |  |  |  |  |  |  |  |  | 
32 | CCOC(=O)c1sc2nc(SC)nc3c2c1NCN3c1ccc2c(c1)OCO2 | 18 | > 100 |  | > 100 | 58.8 |  | > 100 | 45.1 | > 100 | 30.8 | 53.2 |  |  |  |  |  |  |  | 
